# Tests used:
# Experiment in all cases: KINOMEscan kinase profiling
# Assay type in all cases: binding
# STK33 = molecular target: T1, STK33 (Homo sapiens, UniProt Q9BYT3); conditions: read-out: %Inhibition by 10 μM SPA70
# T1 construct: purchased DiscoverX (Ambit Biosciences) KINOMEscan
# How it was run: (§1)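 KINOMEscan profiling followed a published protocol. Kinases whose inhibition exceeded a set cut-off were then tested in a dilution series beginning at 30 µM.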
# TXK = molecular target: T2, TXK (Homo sapiens, UniProt P42681); conditions: read-out: %Inhibition by 10 μM SPA70
# T2 construct: purchased DiscoverX (Ambit Biosciences) KINOMEscan
# How it was run: as §1
# CSNK1G3 = molecular target: T3, CSNK1G3 (Homo sapiens, UniProt Q9Y6M4)
# T3 construct: purchased DiscoverX (Ambit Biosciences) KINOMEscan
# How it was run: as §1
# MLK2 = molecular target: T4, MLK2 (Homo sapiens, UniProt Q02779); conditions: read-out: %Inhibition by 10 μM SPA70
# T4 construct: purchased DiscoverX (Ambit Biosciences) KINOMEscan
# How it was run: as §1
# p38-gamma = molecular target: T5, p38-gamma (Homo sapiens, UniProt P53778); conditions: read-out: %Inhibition by 10 μM SPA70
# T5 construct: purchased DiscoverX (Ambit Biosciences) KINOMEscan
# How it was run: as §1
# LKB1 = molecular target: T6, LKB1 (Homo sapiens, UniProt Q15831); conditions: read-out: %Inhibition by 10 μM SPA70
# T6 construct: purchased DiscoverX (Ambit Biosciences) KINOMEscan
# How it was run: as §1
# TSSK1B = molecular target: T7, TSSK1B (Homo sapiens, UniProt Q9BXA7); conditions: read-out: %Inhibition by 10 μM SPA70
# T7 construct: purchased DiscoverX (Ambit Biosciences) KINOMEscan
# How it was run: as §1
# YANK3 = molecular target: T8, YANK3 (Homo sapiens, UniProt Q86UX6); conditions: read-out: %Inhibition by 10 μM SPA70
# T8 construct: purchased DiscoverX (Ambit Biosciences) KINOMEscan
# How it was run: as §1
# DLK = molecular target: T9, DLK (Homo sapiens, UniProt Q12852)
# T9 construct: purchased DiscoverX (Ambit Biosciences) KINOMEscan
# How it was run: as §1
# CAMKK2 = molecular target: T10, CAMKK2 (Homo sapiens, UniProt Q96RR4); conditions: read-out: %Inhibition by 10 μM SPA70
# T10 construct: purchased DiscoverX (Ambit Biosciences) KINOMEscan
# How it was run: as §1
# VEGFR2 = molecular target: T11, VEGFR2 (Homo sapiens, UniProt P35968); conditions: read-out: %Inhibition by 10 μM SPA70
# T11 construct: purchased DiscoverX (Ambit Biosciences) KINOMEscan
# How it was run: as §1
# DAPK2 = molecular target: T12, DAPK2 (Homo sapiens, UniProt Q9UIK4); conditions: read-out: %Inhibition by 10 μM SPA70
# T12 construct: purchased DiscoverX (Ambit Biosciences) KINOMEscan
# How it was run: as §1
# AURKA = molecular target: T13, AURKA (Homo sapiens, UniProt O14965); conditions: read-out: %Inhibition by 10 μM SPA70
# T13 construct: purchased DiscoverX (Ambit Biosciences) KINOMEscan
# How it was run: as §1
# CAMK2A = molecular target: T14, CAMK2A (Homo sapiens, UniProt Q9UQM7); conditions: read-out: %Inhibition by 10 μM SPA70
# T14 construct: purchased DiscoverX (Ambit Biosciences) KINOMEscan
# How it was run: as §1
# CDK8 = molecular target: T15, CDK8 (Homo sapiens, UniProt P49336)
# T15 construct: purchased DiscoverX (Ambit Biosciences) KINOMEscan
# How it was run: as §1
# MAP3K2 = molecular target: T16, MAP3K2 (Homo sapiens, UniProt Q9Y2U5); conditions: read-out: %Inhibition by 10 μM SPA70
# T16 construct: purchased DiscoverX (Ambit Biosciences) KINOMEscan
# How it was run: as §1
# MEK5 = molecular target: T17, MEK5 (Homo sapiens, UniProt Q13163); conditions: read-out: %Inhibition by 10 μM SPA70
# T17 construct: purchased DiscoverX (Ambit Biosciences) KINOMEscan
# How it was run: as §1
# BMPR1B = molecular target: T18, BMPR1B (Homo sapiens, UniProt O00238); conditions: read-out: %Inhibition by 10 μM SPA70
# T18 construct: purchased DiscoverX (Ambit Biosciences) KINOMEscan
# How it was run: as §1
# PIP5K2C = molecular target: T19, PIP5K2C (Homo sapiens, UniProt Q8TBX8); conditions: read-out: %Inhibition by 10 μM SPA70
# T19 construct: purchased DiscoverX (Ambit Biosciences) KINOMEscan
# How it was run: as §1
# MEK1 = molecular target: T20, MEK1 (Homo sapiens, UniProt Q02750); conditions: read-out: %Inhibition by 10 μM SPA70
# T20 construct: purchased DiscoverX (Ambit Biosciences) KINOMEscan
# How it was run: as §1
# AXL = molecular target: T21, AXL (Homo sapiens, UniProt P30530); conditions: read-out: %Inhibition by 10 μM SPA70
# T21 construct: purchased DiscoverX (Ambit Biosciences) KINOMEscan
# How it was run: as §1
# FES = molecular target: T22, FES (Homo sapiens, UniProt P07332); conditions: read-out: %Inhibition by 10 μM SPA70
# T22 construct: purchased DiscoverX (Ambit Biosciences) KINOMEscan
# How it was run: as §1
# SNRK = molecular target: T23, SNRK (Homo sapiens, UniProt Q9NRH2); conditions: read-out: %Inhibition by 10 μM SPA70
# T23 construct: purchased DiscoverX (Ambit Biosciences) KINOMEscan
# How it was run: as §1
# EIF2AK1 = molecular target: T24, EIF2AK1 (Homo sapiens, UniProt Q9BQI3); conditions: read-out: %Inhibition by 10 μM SPA70
# T24 construct: purchased DiscoverX (Ambit Biosciences) KINOMEscan
# How it was run: as §1
# YSK1 = molecular target: T25, YSK1 (Homo sapiens, UniProt O00506); conditions: read-out: %Inhibition by 10 μM SPA70
# T25 construct: purchased DiscoverX (Ambit Biosciences) KINOMEscan
# How it was run: as §1
# ERK4 = molecular target: T26, ERK4 (Homo sapiens, UniProt P31152); conditions: read-out: %Inhibition by 10 μM SPA70
# T26 construct: purchased DiscoverX (Ambit Biosciences) KINOMEscan
# How it was run: as §1
# GAK = molecular target: T27, GAK (Homo sapiens, UniProt O14976); conditions: read-out: %Inhibition by 10 μM SPA70
# T27 construct: purchased DiscoverX (Ambit Biosciences) KINOMEscan
# How it was run: as §1
# STK36 = molecular target: T28, STK36 (Homo sapiens, UniProt Q9NRP7); conditions: read-out: %Inhibition by 10 μM SPA70
# T28 construct: purchased DiscoverX (Ambit Biosciences) KINOMEscan
# How it was run: as §1
# NEK1 = molecular target: T29, NEK1 (Homo sapiens, UniProt Q96PY6); conditions: read-out: %Inhibition by 10 μM SPA70
# T29 construct: purchased DiscoverX (Ambit Biosciences) KINOMEscan
# How it was run: as §1
# JNK1 = molecular target: T30, JNK1 (Homo sapiens, UniProt P45983)
# T30 construct: purchased DiscoverX (Ambit Biosciences) KINOMEscan
# How it was run: as §1
# PIK4CB = molecular target: T31, PIK4CB (Homo sapiens, UniProt Q9UBF8); conditions: read-out: %Inhibition by 10 μM SPA70
# T31 construct: purchased DiscoverX (Ambit Biosciences) KINOMEscan
# How it was run: as §1
# RIOK3 = molecular target: T32, RIOK3 (Homo sapiens, UniProt O14730); conditions: read-out: %Inhibition by 10 μM SPA70
# T32 construct: purchased DiscoverX (Ambit Biosciences) KINOMEscan
# How it was run: as §1
# BMX = molecular target: T33, BMX (Homo sapiens, UniProt P51813); conditions: read-out: %Inhibition by 10 μM SPA70
# T33 construct: purchased DiscoverX (Ambit Biosciences) KINOMEscan
# How it was run: as §1
# HIPK2 = molecular target: T34, HIPK2 (Homo sapiens, UniProt Q9H2X6); conditions: read-out: %Inhibition by 10 μM SPA70
# T34 construct: purchased DiscoverX (Ambit Biosciences) KINOMEscan
# How it was run: as §1
# [1] = molecular target: T35, RSK1(Kin.Dom.1-N-terminal) (Homo sapiens, UniProt Q15418); conditions: read-out: %Inhibition by 10 μM SPA70
# T35 construct: RSK1(Kin.Dom.1-N-terminal); purchased DiscoverX (Ambit Biosciences) KINOMEscan
# How it was run: as §1
# CSNK1G1 = molecular target: T36, CSNK1G1 (Homo sapiens, UniProt Q9HCP0)
# T36 construct: purchased DiscoverX (Ambit Biosciences) KINOMEscan
# How it was run: as §1
# p38-alpha = molecular target: T37, p38-alpha (Homo sapiens, UniProt Q16539)
# T37 construct: purchased DiscoverX (Ambit Biosciences) KINOMEscan
# How it was run: as §1
# ACVR1 = molecular target: T38, ACVR1 (Homo sapiens, UniProt Q04771); conditions: read-out: %Inhibition by 10 μM SPA70
# T38 construct: purchased DiscoverX (Ambit Biosciences) KINOMEscan
# How it was run: as §1
# BRSK2 = molecular target: T39, BRSK2 (Homo sapiens, UniProt Q8IWQ3); conditions: read-out: %Inhibition by 10 μM SPA70
# T39 construct: purchased DiscoverX (Ambit Biosciences) KINOMEscan
# How it was run: as §1
# FLT3 = molecular target: T40, FLT3 (Homo sapiens, UniProt P36888); conditions: read-out: %Inhibition by 10 μM SPA70
# T40 construct: purchased DiscoverX (Ambit Biosciences) KINOMEscan
# How it was run: as §1
# WEE2 = molecular target: T41, WEE2 (Homo sapiens, UniProt P0C1S8); conditions: read-out: %Inhibition by 10 μM SPA70
# T41 construct: purchased DiscoverX (Ambit Biosciences) KINOMEscan
# How it was run: as §1
# LIMK1 = molecular target: T42, LIMK1 (Homo sapiens, UniProt P53667); conditions: read-out: %Inhibition by 10 μM SPA70
# T42 construct: purchased DiscoverX (Ambit Biosciences) KINOMEscan
# How it was run: as §1
# T1 sequence (Q9BYT3 whole entry): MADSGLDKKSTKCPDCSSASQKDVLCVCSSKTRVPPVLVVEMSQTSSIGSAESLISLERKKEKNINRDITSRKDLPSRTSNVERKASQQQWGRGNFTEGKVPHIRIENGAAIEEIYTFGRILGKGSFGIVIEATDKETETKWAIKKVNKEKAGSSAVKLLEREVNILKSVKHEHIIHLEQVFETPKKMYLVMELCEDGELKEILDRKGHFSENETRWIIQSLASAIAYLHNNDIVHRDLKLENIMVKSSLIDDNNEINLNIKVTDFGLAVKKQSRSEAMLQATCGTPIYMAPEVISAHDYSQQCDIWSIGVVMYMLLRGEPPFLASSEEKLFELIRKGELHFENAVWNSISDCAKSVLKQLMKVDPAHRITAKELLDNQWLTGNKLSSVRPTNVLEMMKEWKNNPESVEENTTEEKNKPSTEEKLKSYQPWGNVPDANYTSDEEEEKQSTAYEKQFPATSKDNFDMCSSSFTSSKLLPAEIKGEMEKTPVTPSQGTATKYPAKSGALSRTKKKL
# T12 sequence (Q9UIK4 whole entry): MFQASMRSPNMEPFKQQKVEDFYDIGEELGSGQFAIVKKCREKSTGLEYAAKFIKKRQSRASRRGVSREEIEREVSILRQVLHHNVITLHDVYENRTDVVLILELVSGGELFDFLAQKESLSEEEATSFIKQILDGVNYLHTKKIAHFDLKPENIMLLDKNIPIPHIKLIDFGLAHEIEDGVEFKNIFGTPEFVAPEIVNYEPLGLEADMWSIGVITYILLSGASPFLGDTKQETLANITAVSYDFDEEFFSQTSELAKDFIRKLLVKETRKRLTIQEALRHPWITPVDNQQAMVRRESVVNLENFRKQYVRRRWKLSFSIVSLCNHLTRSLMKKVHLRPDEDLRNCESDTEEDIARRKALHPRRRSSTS
# T39 sequence (Q8IWQ3 whole entry): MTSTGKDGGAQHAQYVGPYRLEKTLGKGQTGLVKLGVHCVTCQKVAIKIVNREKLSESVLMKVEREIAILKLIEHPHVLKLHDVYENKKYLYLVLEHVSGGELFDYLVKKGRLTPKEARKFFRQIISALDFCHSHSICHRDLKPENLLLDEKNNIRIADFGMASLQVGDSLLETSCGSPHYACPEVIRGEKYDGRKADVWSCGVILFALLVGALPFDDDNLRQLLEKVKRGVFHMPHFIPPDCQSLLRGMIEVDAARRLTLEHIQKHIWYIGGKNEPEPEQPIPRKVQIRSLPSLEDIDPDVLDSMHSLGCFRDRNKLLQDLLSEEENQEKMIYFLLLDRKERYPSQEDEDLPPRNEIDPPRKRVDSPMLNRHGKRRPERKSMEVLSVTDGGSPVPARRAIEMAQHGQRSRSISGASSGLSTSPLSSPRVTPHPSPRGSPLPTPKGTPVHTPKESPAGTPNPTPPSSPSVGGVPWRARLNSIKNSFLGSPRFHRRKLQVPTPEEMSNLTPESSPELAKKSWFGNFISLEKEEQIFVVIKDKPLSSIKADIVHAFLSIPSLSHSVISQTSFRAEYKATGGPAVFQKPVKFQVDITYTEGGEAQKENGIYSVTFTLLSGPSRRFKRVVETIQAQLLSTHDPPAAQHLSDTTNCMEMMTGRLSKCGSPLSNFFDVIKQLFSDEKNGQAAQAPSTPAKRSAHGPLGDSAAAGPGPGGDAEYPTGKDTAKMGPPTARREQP
# T37 sequence (Q16539 whole entry): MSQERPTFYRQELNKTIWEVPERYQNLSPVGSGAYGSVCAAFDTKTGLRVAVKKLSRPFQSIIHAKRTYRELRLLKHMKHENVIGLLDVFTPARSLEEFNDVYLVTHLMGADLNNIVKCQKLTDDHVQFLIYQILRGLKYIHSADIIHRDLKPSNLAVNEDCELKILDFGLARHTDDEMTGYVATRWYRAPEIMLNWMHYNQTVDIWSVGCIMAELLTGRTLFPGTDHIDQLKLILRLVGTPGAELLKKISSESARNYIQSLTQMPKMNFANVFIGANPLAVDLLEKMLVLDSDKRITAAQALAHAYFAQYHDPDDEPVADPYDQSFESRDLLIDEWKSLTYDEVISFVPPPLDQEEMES
# T36 sequence (Q9HCP0 whole entry): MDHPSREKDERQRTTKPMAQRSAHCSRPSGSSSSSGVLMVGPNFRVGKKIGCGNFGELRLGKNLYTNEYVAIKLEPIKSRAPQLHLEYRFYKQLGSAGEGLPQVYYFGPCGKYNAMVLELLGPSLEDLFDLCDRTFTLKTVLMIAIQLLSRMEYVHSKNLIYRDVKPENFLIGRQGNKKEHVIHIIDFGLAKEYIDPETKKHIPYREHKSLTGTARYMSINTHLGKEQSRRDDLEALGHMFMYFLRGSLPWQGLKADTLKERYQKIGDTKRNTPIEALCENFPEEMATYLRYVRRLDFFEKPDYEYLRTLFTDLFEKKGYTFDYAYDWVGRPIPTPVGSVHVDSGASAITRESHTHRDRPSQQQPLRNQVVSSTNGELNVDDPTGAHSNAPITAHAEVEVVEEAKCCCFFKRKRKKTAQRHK
# T8 sequence (Q86UX6 whole entry): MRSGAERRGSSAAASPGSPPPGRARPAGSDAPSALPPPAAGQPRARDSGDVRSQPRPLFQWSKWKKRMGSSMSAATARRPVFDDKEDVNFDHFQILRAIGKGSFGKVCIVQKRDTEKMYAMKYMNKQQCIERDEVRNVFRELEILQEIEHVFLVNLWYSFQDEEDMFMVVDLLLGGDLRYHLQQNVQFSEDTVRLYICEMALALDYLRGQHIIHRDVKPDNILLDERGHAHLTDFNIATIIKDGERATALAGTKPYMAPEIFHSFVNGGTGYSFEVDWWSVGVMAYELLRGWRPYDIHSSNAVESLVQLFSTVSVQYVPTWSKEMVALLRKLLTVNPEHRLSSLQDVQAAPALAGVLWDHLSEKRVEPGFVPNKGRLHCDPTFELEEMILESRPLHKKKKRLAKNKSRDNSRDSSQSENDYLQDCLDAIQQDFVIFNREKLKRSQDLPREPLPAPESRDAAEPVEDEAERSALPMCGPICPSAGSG
# T26 sequence (P31152 whole entry): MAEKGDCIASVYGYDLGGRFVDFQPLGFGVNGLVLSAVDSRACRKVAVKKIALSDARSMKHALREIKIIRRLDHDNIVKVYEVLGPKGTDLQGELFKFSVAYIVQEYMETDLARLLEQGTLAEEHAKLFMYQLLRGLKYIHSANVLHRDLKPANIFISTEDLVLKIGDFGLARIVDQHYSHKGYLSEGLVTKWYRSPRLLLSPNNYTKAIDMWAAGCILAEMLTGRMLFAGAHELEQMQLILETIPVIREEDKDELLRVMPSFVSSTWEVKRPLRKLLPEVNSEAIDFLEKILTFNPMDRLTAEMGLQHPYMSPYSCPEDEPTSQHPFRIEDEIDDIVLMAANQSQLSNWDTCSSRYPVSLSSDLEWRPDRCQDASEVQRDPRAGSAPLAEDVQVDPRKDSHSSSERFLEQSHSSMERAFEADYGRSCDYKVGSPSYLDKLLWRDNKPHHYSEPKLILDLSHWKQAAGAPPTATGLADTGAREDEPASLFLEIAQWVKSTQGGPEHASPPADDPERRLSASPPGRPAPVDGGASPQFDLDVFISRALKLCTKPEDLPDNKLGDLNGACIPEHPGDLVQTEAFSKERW
# T27 sequence (O14976 whole entry): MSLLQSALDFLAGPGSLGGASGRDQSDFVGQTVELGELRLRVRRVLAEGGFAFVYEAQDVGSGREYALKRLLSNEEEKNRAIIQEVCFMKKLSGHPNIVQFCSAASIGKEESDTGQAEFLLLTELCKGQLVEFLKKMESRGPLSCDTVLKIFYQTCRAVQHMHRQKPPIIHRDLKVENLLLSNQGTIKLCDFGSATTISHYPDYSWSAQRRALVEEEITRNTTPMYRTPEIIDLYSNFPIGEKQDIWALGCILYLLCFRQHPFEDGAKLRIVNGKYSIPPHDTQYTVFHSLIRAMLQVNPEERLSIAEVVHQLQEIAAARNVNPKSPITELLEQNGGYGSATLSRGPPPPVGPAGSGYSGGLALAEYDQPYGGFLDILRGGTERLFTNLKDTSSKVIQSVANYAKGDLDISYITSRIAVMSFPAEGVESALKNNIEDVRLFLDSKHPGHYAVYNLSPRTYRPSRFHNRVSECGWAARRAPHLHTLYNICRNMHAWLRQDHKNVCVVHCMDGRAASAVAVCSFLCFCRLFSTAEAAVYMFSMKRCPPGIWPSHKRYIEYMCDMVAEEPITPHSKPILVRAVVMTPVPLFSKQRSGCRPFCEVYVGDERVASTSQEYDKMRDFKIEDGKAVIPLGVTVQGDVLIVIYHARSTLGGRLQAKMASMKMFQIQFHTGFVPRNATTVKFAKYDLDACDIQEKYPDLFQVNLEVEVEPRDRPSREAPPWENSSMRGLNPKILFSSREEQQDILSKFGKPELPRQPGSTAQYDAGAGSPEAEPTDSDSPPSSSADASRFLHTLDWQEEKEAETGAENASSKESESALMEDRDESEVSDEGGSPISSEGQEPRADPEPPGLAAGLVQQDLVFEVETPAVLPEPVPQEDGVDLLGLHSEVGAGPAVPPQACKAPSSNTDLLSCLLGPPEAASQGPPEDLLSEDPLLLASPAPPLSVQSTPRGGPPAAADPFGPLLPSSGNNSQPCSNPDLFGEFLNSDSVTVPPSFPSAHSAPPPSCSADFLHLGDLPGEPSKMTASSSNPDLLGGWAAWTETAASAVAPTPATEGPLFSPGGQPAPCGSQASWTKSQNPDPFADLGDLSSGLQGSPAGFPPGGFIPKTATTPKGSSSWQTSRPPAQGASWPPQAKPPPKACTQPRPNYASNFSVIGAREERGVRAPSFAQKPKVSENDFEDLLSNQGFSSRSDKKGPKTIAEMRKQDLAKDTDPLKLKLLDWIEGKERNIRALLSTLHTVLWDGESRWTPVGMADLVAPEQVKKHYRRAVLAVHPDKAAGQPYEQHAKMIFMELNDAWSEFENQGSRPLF
compound,measurement,setting,value
COc1ccc(OC)c(-n2nnc(S(=O)(=O)c3ccc(C(C)(C)C)cc3)c2C)c1 [SPA70],inhibition at 10 µM,STK33,0%
same,inhibition at 10 µM,TXK,0%
same,%Inhibition by 10 μM SPA70,CSNK1G3,0%
same,inhibition at 10 µM,MLK2,0%
same,inhibition at 10 µM,p38-gamma,8%
same,inhibition at 10 µM,LKB1,0%
same,inhibition at 10 µM,TSSK1B,0%
same,inhibition at 10 µM,YANK3,0%
same,%Inhibition by 10 μM SPA70,DLK,4%
same,inhibition at 10 µM,CAMKK2,0%
same,inhibition at 10 µM,VEGFR2,0%
same,inhibition at 10 µM,DAPK2,0%
same,inhibition at 10 µM,AURKA,0%
same,inhibition at 10 µM,CAMK2A,0%
same,%Inhibition by 10 μM SPA70,CDK8,2%
same,inhibition at 10 µM,MAP3K2,15%
same,inhibition at 10 µM,MEK5,8%
same,inhibition at 10 µM,BMPR1B,0%
same,inhibition at 10 µM,PIP5K2C,10%
same,inhibition at 10 µM,MEK1,11%
same,inhibition at 10 µM,AXL,0%
same,inhibition at 10 µM,FES,40%
same,inhibition at 10 µM,SNRK,0%
same,inhibition at 10 µM,EIF2AK1,0%
same,inhibition at 10 µM,YSK1,2%
same,inhibition at 10 µM,ERK4,0%
same,inhibition at 10 µM,GAK,3%
same,inhibition at 10 µM,STK36,0%
same,inhibition at 10 µM,NEK1,0%
same,%Inhibition by 10 μM SPA70,JNK1,9%
same,inhibition at 10 µM,PIK4CB,27%
same,inhibition at 10 µM,RIOK3,24%
same,inhibition at 10 µM,BMX,0%
same,inhibition at 10 µM,HIPK2,36%
same,inhibition at 10 µM,[1],40%
same,%Inhibition by 10 μM SPA70,CSNK1G1,0%
same,%Inhibition by 10 μM SPA70,p38-alpha,0%
same,inhibition at 10 µM,ACVR1,0%
same,inhibition at 10 µM,BRSK2,0%
same,inhibition at 10 µM,FLT3,0%
same,inhibition at 10 µM,WEE2,1%
same,inhibition at 10 µM,LIMK1,0%
